Activity calls are given as the source filed them. No cut-off for these calls is given here.
biological target: T1, Nuclear receptor ROR-gamma (Homo sapiens, UniProt P51449); settings: not given
T1 sequence (P51449 whole entry): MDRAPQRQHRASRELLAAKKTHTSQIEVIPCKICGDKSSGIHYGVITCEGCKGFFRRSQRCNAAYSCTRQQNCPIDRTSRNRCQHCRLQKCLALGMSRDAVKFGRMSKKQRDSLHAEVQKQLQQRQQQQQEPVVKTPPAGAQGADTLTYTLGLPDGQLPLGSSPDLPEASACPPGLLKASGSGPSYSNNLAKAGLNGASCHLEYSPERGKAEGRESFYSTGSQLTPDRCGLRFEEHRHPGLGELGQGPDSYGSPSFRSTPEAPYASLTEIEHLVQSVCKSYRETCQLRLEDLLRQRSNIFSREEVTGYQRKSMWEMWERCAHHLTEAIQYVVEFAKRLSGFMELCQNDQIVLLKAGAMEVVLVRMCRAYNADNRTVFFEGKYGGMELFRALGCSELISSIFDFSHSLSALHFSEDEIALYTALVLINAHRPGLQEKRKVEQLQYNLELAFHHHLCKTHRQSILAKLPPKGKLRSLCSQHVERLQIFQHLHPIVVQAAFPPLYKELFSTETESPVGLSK

Structure (SMILES)	IC50 [µM]
COc1ccccc1C(=O)c1sc(N)nc1-c1ccc(Cl)c(C(F)(F)F)c1	> 40
Nc1nc(-c2ccc(Cl)c(C(F)(F)F)c2)c(C(=O)c2ccccc2Cl)s1	> 40
Nc1nc(-c2cccc(C(F)(F)F)c2)c(C(=O)c2ccccc2Br)s1	> 40
COc1ccccc1C(=O)c1sc(N)nc1-c1cccc(C(F)(F)F)c1	> 40
Nc1nc(-c2cccc(C(F)(F)F)c2)c(C(=O)c2c(F)cccc2Cl)s1	> 40
Nc1nc(-c2cc(Br)cc(C(F)(F)F)c2)c(C(=O)c2ccccc2Cl)s1	> 40
Nc1nc(-c2cccc(C(F)(F)F)c2)c(C(=O)c2c(F)cccc2C(F)(F)F)s1	> 40
Nc1nc(-c2cccc(C(F)(F)F)c2)c(C(=O)c2ccccc2C(F)(F)F)s1	> 40

biological target: T2, Nuclear receptor ROR-alpha (Homo sapiens) (UniProt P35398); test: Inverse agonist activity at GAL4-DNA binding domain-fused human RORalpha ligand binding domain expressed in HEK293T cells incubated for 20 hrs by luciferase reporter gene assay; format: cell-based; settings: not given
T2 sequence (whole entry): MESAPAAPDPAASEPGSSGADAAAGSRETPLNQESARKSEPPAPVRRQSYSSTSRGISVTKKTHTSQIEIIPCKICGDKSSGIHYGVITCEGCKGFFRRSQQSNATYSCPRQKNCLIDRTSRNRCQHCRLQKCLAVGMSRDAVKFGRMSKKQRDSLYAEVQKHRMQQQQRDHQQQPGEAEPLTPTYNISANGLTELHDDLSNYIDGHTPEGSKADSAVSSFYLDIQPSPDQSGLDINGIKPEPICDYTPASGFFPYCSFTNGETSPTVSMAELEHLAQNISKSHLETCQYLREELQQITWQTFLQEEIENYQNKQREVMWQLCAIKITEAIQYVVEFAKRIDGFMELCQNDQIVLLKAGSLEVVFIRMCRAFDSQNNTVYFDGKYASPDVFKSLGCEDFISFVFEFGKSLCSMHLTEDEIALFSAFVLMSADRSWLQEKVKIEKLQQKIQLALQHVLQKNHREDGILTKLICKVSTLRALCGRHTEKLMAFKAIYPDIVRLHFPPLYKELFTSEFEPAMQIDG

Structure (SMILES)	Activity
COc1ccccc1C(=O)c1sc(N)nc1-c1ccc(Cl)c(C(F)(F)F)c1	inactive
COc1ccccc1C(=O)c1sc(N)nc1-c1cc(Br)cc(C(F)(F)F)c1	inactive
Nc1nc(-c2cc(Br)cc(C(F)(F)F)c2)c(C(=O)c2ccccc2Cl)s1	inactive
Nc1nc(-c2cccc(Cl)c2)c(C(=O)c2ccccc2Cl)s1	inactive

system: HEK-293T; test: Toxicity in HEK293T cells at 10 uM; format: cell-based; settings: human

Structure (SMILES)	Activity
COc1ccccc1C(=O)c1sc(N)nc1-c1ccc(Cl)c(C(F)(F)F)c1	Non-Toxic
COc1ccccc1C(=O)c1sc(N)nc1-c1cc(Br)cc(C(F)(F)F)c1	Non-Toxic
CCS(=O)(=O)c1ccc(CC(=O)Nc2nc(-c3ccccc3Cl)c(C(=O)c3ccccc3Cl)s2)cc1	Non-Toxic
Nc1nc(-c2cc(Br)cc(C(F)(F)F)c2)c(C(=O)c2ccccc2Cl)s1	Non-Toxic
Nc1nc(-c2cccc(Cl)c2)c(C(=O)c2ccccc2Cl)s1	Non-Toxic

system: not listed separately; test: Half life in mouse liver microsomes at 1 uM in presence of NADPH by LC-MS/MS analysis; format: ADME, microsome; settings: not given

Structure (SMILES)	t1/2 [min]
Nc1nc(-c2cc(C(F)(F)F)cc(C(F)(F)F)c2)c(C(=O)c2ccccc2Cl)s1	7.4
Nc1nc(-c2cccc(C(F)(F)F)c2)c(C(=O)c2c(F)cccc2Cl)s1	2.7
COc1ccccc1C(=O)c1sc(N)nc1-c1cc(Br)cc(C(F)(F)F)c1	2.3
CCS(=O)(=O)c1ccc(CC(=O)Nc2nc(-c3ccccc3Cl)c(C(=O)c3ccccc3Cl)s2)cc1	34
Nc1nc(-c2cc(Br)cc(C(F)(F)F)c2)c(C(=O)c2ccccc2Cl)s1	5.2
COc1ccccc1C(=O)c1sc(N)nc1-c1cc(C(F)(F)F)cc(C(F)(F)F)c1	5.2
Nc1nc(-c2cccc(C(F)(F)F)c2)c(C(=O)c2ccccc2Cl)s1	2.9
Nc1nc(-c2ccc(Br)c(C(F)(F)F)c2)c(C(=O)c2ccccc2Cl)s1	2.5
Nc1nc(-c2cc(Cl)cc(C(F)(F)F)c2)c(C(=O)c2ccccc2Cl)s1	6.1
Nc1nc(-c2cccc(Cl)c2)c(C(=O)c2ccccc2Cl)s1	1.9

Source: ChEMBL document CHEMBL4219141, “Identification of an aminothiazole series of RORβ modulators” (Bioorg Med Chem Lett, 2018)
